pEC50: −log10 of the molar value.
Target: human F508del-CFTR (Homo sapiens, UniProt P13569, DEL508-508)
Test: F508del-CFTR cell surface expression (corrector activity), DiscoveRx ß-galactosidase complementation chemiluminescence assay in recombinant U2OS cell line;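 note: U2OS cells co-expressing ProLink-tagged F508del-CFTR and a membrane-anchored enzyme acceptor, where more surface CFTR restores β-galactosidase activity measured by chemiluminescence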
Settings: U2OS cell line, 16h compound incubation; for pEC50: EC50, F508del-CFTR cell surface expression, geomean values; for Emax: U2OS, in relation to the Emax of the corrector lumacaftor (=100%), arithmetic mean values

Chain of human F508del-CFTR (P13569 with tags, fused parts or gaps DEL508-508): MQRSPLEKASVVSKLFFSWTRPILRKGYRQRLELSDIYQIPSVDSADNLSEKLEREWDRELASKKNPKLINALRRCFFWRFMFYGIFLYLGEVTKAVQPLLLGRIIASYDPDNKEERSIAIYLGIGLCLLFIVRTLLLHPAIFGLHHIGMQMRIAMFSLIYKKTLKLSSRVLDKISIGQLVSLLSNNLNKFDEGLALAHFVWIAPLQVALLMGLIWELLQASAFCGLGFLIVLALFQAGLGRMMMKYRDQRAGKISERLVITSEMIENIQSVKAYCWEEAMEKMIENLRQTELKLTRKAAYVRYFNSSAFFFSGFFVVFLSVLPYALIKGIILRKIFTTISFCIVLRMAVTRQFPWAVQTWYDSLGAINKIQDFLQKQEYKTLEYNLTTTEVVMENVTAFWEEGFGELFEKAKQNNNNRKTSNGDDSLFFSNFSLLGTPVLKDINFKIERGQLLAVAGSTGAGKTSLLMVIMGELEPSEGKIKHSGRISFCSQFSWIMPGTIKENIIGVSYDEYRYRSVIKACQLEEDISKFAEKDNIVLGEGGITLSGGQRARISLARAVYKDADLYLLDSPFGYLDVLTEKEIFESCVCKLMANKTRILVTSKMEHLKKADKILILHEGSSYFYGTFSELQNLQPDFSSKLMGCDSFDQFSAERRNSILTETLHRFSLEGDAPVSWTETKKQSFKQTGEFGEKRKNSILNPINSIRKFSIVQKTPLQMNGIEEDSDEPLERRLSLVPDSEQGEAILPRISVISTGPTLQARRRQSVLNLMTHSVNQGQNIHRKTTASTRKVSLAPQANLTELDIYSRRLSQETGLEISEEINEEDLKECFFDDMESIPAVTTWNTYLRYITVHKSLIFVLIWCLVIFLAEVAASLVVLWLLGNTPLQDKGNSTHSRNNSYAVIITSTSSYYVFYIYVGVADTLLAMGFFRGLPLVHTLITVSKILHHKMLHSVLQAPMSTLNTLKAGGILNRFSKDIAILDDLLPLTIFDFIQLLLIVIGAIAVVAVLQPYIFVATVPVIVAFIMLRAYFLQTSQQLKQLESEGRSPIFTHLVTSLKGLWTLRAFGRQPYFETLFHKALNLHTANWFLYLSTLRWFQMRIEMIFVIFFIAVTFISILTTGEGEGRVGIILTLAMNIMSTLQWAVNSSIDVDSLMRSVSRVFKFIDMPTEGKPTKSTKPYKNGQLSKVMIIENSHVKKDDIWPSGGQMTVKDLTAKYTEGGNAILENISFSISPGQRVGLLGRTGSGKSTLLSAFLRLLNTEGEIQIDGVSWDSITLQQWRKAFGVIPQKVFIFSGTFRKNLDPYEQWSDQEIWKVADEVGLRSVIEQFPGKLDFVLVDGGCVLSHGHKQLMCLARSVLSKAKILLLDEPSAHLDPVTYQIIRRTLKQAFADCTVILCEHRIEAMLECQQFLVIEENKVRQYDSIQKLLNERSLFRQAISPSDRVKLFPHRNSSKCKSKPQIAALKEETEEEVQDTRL

| pEC50 | Emax [%] | Structure (SMILES) |
| --- | --- | --- |
| 6.50 | 169 | COc1cc(CCNC(=O)[C@@H]2CC(=O)N(C)[C@@H](CC(C)C)C(=O)N(CCC3CCCCC3)CC(=O)N[C@H](Cc3ccccc3)COc3cccc(OC)c3C(=O)N2)ccn1 [Example 158, (3R,9S,13S)-3-benzyl-7-(2-cyclohexylethyl)-9-isobutyl-16-methoxy-N-(2-(2-methoxypyridin-4-yl)ethyl)-10-methyl-5,8,11,15-tetraoxo-2,3,4,5,6,7,8,9,10,11,12,13,14,15-tetradecahydrobenzo[p][1]oxa[4,7,10,14]tetraazacycloheptadecine-13-carboxamide] |
| 6.60 | 137 | COc1cc2c(cc1OC)C(=O)N[C@H](C(=O)NCCc1ccc3c(c1)OCCCC3)CC(=O)N(C)[C@@H](CC(C)C)C(=O)N(C)CC(=O)N[C@H](Cc1ccccc1)CO2 [Example 161, (3R,9S,13S)-3-benzyl-9-isobutyl-17,18-dimethoxy-7,10-dimethyl-5,8,11,15-tetraoxo-N-(2-(2,3,4,5-tetrahydrobenzo[b]oxepin-8-yl)ethyl)-2,3,4,5,6,7,8,9,10,11,12,13,14,15-tetradecahydrobenzo[p][1]oxa[4,7,10,14]tetraazacycloheptadecine-13-carboxamide] |
| 6.20 | 111 | COc1ccc(C2(CNC(=O)[C@@H]3CC(=O)N(C)[C@@H](CC(C)C)C(=O)N(C)C4(CC4)C(=O)N[C@H](Cc4ccccc4)COc4cnc5ccc(F)cc5c4C(=O)N3)CC2)cc1OC [Example 166, (3′S,7′S,13′R)-13′-benzyl-N-((1-(3,4-dimethoxyphenyl)cyclopropyl)methyl)-20′-fluoro-7′-isobutyl-6′,9′-dimethyl-1′,5′,8′,11′-tetraoxo-2′,3′,4′,5′,6′,7′,8′,9′,11′,12′,13′,14′-dodecahydro-1′H-spiro[cyclopropane-1,10′-[1]oxa[4,7,10,14]tetraazacycloheptadecino[17,16-c]quinoline]-3′-carboxamide] |
| 6.47 | 193 | CC(C)C[C@H]1C(=O)N(C)C2(CC2)C(=O)N[C@H](Cc2ccccc2)COc2cnc3ccc(F)cc3c2C(=O)N[C@H](C(=O)NCCc2cccc(C#N)c2)CC(=O)N1C [Example 168, (3′S,7′S,13′R)-13′-benzyl-N-(3-cyanophenethyl)-20′-fluoro-7′-isobutyl-6′,9′-dimethyl-1′,5′,8′,11′-tetraoxo-2′,3′,4′,5′,6′,7′,8′,9′,11′,12′,13′,14′-dodecahydro-1′H-spiro[cyclopropane-1,10′-[1]oxa[4,7,10,14]tetraazacycloheptadecino[17,16-c]quinoline]-3′-carboxamide] |
| 6.48 | 267 | CC(C)C[C@H]1C(=O)N(C)C2(CC2)C(=O)N[C@H](Cc2ccccc2)COc2cnc3ccc(F)cc3c2C(=O)N[C@H](C(=O)NCCc2ccc(N3CCOCC3)cc2)CC(=O)N1C [Example 170, (3′S,7′S,13′R)-13′-benzyl-20′-fluoro-7′-isobutyl-6′,9′-dimethyl-N-(4-morpholinophenethyl)-1′,5′,8′,11′-tetraoxo-2′,3′,4′,5′,6′,7′,8′,9′,11′,12′,13′,14′-dodecahydro-1′H-spiro[cyclopropane-1,10′-[1]oxa[4,7,10,14]tetraazacycloheptadecino[17,16-c]quinoline]-3′-carboxamide] |
| 6.84 | 301 | CC(C)C[C@H]1C(=O)N2CCCC[C@@H]2C(=O)N[C@H](Cc2ccccc2)COc2cnc3ccc(F)cc3c2C(=O)N[C@H](C(=O)NCCc2noc(C(C)C)n2)CC(=O)N1C [Example 171, (9S,13S,19aR,22R)-22-benzyl-5-fluoro-13-isobutyl-N-(2-(5-isopropyl-1,2,4-oxadiazol-3-yl)ethyl)-12-methyl-7,11,14,20-tetraoxo-7,8,9,10,11,12,13,14,17,18,19,19a,20,21,22,23-hexadecahydro-16H-pyrido[2′,1′:6,7][1]oxa[4,7,10,14]tetraazacycloheptadecino[17,16-c]quinoline-9-carboxamide] |
| 6.49 | 213 | CC(C)C[C@H]1C(=O)N(C)C2(CC2)C(=O)N[C@H](Cc2ccccc2)COc2cnc3ccc(F)cc3c2C(=O)N[C@H](C(=O)NCCn2cc(C3CC3)cn2)CC(=O)N1C [Example 172, (3′S,7′S,13′R)-13′-benzyl-N-(2-(4-cyclopropyl-1H-pyrazol-1-yl)ethyl)-20′-fluoro-7′-isobutyl-6′,9′-dimethyl-1′,5′,8′,11′-tetraoxo-2′,3′,4′,5′,6′,7′,8′,9′,11′,12′,13′,14′-dodecahydro-1′H-spiro[cyclopropane-1,10′-[1]oxa[4,7,10,14]tetraazacycloheptadecino[17,16-c]quinoline]-3′-carboxamide] |
| 6.34 | 212 | CC(C)C[C@H]1C(=O)N(C)C2(CC2)C(=O)N[C@H](Cc2ccccc2)COc2cnc3ccc(F)cc3c2C(=O)N[C@H](C(=O)NCCn2cc(Br)cn2)CC(=O)N1C [Example 173, (3′S,7′S,13′R)-13′-benzyl-N-(2-(4-bromo-1H-pyrazol-1-yl)ethyl)-20′-fluoro-7′-isobutyl-6′,9′-dimethyl-1′,5′,8′,11′-tetraoxo-2′,3′,4′,5′,6′,7′,8′,9′,11′,12′,13′,14′-dodecahydro-1′H-spiro[cyclopropane-1,10′-[1]oxa[4,7,10,14]tetraazacycloheptadecino[17,16-c]quinoline]-3′-carboxamide] |
| 6.02 | 194 | COCCCc1cnn(CCNC(=O)[C@@H]2CC(=O)N(C)[C@@H](CC(C)C)C(=O)N(C)C3(CC3)C(=O)N[C@H](Cc3ccccc3)COc3cnc4ccc(F)cc4c3C(=O)N2)c1 [Example 174, (3′S,7′S,13′R)-13′-benzyl-20′-fluoro-7′-isobutyl-N-(2-(4-(3-methoxypropyl)-1H-pyrazol-1-yl)ethyl)-6′,9′-dimethyl-1′,5′,8′,11′-tetraoxo-2′,3′,4′,5′,6′,7′,8′,9′,11′,12′,13′,14′-dodecahydro-1′H-spiro[cyclopropane-1,10′-[1]oxa[4,7,10,14]tetraazacycloheptadecino[17,16-c]quinoline]-3′-carboxamide] |
| 6.64 | 179 | COc1cccc(C(F)(F)CNC(=O)[C@@H]2CC(=O)N(C)[C@@H](CC(C)C)C(=O)N(C)C3(CC3)C(=O)N[C@H](Cc3ccccc3)COc3cnc4ccccc4c3C(=O)N2)c1 [Example 175, (3′S,7′S,13′R)-13′-benzyl-N-(2,2-difluoro-2-(3-methoxyphenyl)ethyl)-7′-isobutyl-6′,9′-dimethyl-1′,5′,8′,11′-tetraoxo-2′,3′,4′,5′,6′,7′,8′,9′,11′,12′,13′,14′-dodecahydro-1′H-spiro[cyclopropane-1,10′-[1]oxa[4,7,10,14]tetraazacycloheptadecino[17,16-c]quinoline]-3′-carboxamide] |
| 6.09 | 245 | COc1nccc2c1C(=O)N[C@H](C(=O)NCCc1cnn(C3CC3)c1)CC(=O)N(C)[C@@H](CC(C)C)C(=O)N1CCCC[C@@H]1C(=O)N[C@H](Cc1ccccc1)CO2 [Example 176, (7S,11S,17aR,20R)-20-benzyl-N-(2-(1-cyclopropyl-1H-pyrazol-4-yl)ethyl)-11-isobutyl-4-methoxy-10-methyl-5,9,12,18-tetraoxo-5,6,7,8,9,10,11,12,15,16,17,17a,18,19,20,21-hexadecahydro-14H-dipyrido[2,1-f:3′,4′-p][1]oxa[4,7,10,14]tetraazacycloheptadecine-7-carboxamide] |

| Structure (SMILES) | pEC50 | Emax [%] |
| --- | --- | --- |
| COc1cc2c(cc1OC)C(=O)N[C@H](C(=O)NCCc1ccc3c(c1)OCO3)CC(=O)N(C)[C@@H](CC(C)C)C(=O)N(C[C@H]1CCCCO1)CC(=O)N[C@H](Cc1ccccc1)CO2 [Example 159, (3R,9S,13S)-N-(2-(benzo[d][1,3]dioxol-5-yl)ethyl)-3-benzyl-9-isobutyl-17,18-dimethoxy-10-methyl-5,8,11,15-tetraoxo-7-(((R)-tetrahydro-2H-pyran-2-yl)methyl)-2,3,4,5,6,7,8,9,10,11,12,13,14,15-tetradecahydrobenzo[p][1]oxa[4,7,10,14]tetraazacycloheptadecine-13-carboxamide] | 6.41 | 100 |
| COc1cc2c(cc1OC)C(=O)N[C@H](C(=O)NCCc1ccc3c(c1)OCO3)CC(=O)N(C)[C@@H](CC(C)C)C(=O)N(C[C@@H]1CCCCO1)CC(=O)N[C@H](Cc1ccccc1)CO2 [Example 160, (3R,9S,13S)-N-(2-(benzo[d][1,3]dioxol-5-yl)ethyl)-3-benzyl-9-isobutyl-17,18-dimethoxy-10-methyl-5,8,11,15-tetraoxo-7-(((S)-tetrahydro-2H-pyran-2-yl)methyl)-2,3,4,5,6,7,8,9,10,11,12,13,14,15-tetradecahydrobenzo[p][1]oxa[4,7,10,14]tetraazacycloheptadecine-13-carboxamide] | 6.65 | 116 |
| CC(C)C[C@H]1C(=O)N(C)C2(CC2)C(=O)N[C@H](Cc2ccccc2)COc2cnc3ccc(F)cc3c2C(=O)N[C@H](C(=O)NCCc2cccc(S(C)(=O)=O)c2)CC(=O)N1C [Example 167, (3′S,7′S,13′R)-13′-benzyl-20′-fluoro-7′-isobutyl-6′,9′-dimethyl-N-(3-(methylsulfonyl)phenethyl)-1′,5′,8′,11′-tetraoxo-2′,3′,4′,5′,6′,7′,8′,9′,11′,12′,13′,14′-dodecahydro-1′H-spiro[cyclopropane-1,10′-[1]oxa[4,7,10,14]tetraazacycloheptadecino[17,16-c]quinoline]-3′-carboxamide] | 6.09 | 238 |
| CC(C)C[C@H]1C(=O)N(C)C2(CC2)C(=O)N[C@H](Cc2ccccc2)COc2cnc3ccc(F)cc3c2C(=O)N[C@H](C(=O)NCCc2cccc(C(F)(F)F)c2)CC(=O)N1C [Example 169, (3′S,7′S,13′R)-13′-benzyl-20′-fluoro-7′-isobutyl-6′,9′-dimethyl-1′,5′,8′,11′-tetraoxo-N-(3-(trifluoromethyl)phenethyl)-2′,3′,4′,5′,6′,7′,8′,9′,11′,12′,13′,14′-dodecahydro-1′H-spiro[cyclopropane-1,10′-[1]oxa[4,7,10,14]tetraazacycloheptadecino[17,16-c]quinoline]-3′-carboxamide] | 6.48 | 170 |

Source: US20240208992A1, “MACROCYCLES AS CFTR MODULATORS” (Idorsia Pharmaceuticals Ltd, priority 2021, published 2024)
